Series [1] is described as follows: Compound cytotoxicity, XTT-based colorimetric assay. Format: cell-based. Conditions: human. The method, boiled down: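 Follows the antiviral assay procedure, but with uninfected MT2 cells. On day 4, cell viability is measured by XTT-based colorimetry, giving CC50 values.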
A general note: Formazan colour is commonly taken as a measure of viable cells.

Series [2] concerns recombinant NL4-3 virus (nef section replaced with Renilla luciferase gene) in MT-2 cells. The series is described as follows: HIV cell culture assay (antiviral activity, luciferase readout). Format: cell-based. Conditions: Renilla, NL43, MT-2 cells infected for 4-5 days with recombinant NL4-3 Renilla luciferase virus. The method, boiled down: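 Read-out: Renilla luciferase (live-cell substrate) in infected MT-2 cells after 4-5 d with serial compound dilutions. Virus from 293T transfection of the proviral clone, titered by luciferase in MT-2. EC50 via median effect equation fit.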

Where [3] appears, read: uninfected MT2 cells, day 4, XTT, read-out: CC50.

The source of these data is US12594276B2, “Inhibitors of human immunodeficiency virus replication” (ViiV Healthcare UK (No.5) Limited, priority 2024, dated 2026).

SMILES strings stand for the structures. Read-outs that look alike come from different tables or passages of the source.

For `Cc1cc(C2(F)CCC(F)(F)CC2)nc2nc([C@H](Cc3cc(F)cc(F)c3)NC(=O)Cn3nc(C(F)F)c4c3C(F)(F)[C@@H]3C[C@H]43)n(-c3ccc(Cl)c4c(NS(C)(=O)=O)nn(CCN5C[C@H]6CC[C@@H](C5)O6)c34)c(=O)c12` (atropisomer, axis not shown; (P)) [Example 589, N-[(1S)-1-[(3P)-3-(4-chloro-3-methanesulfonamido-1-{2-[(1R,5S)-8-oxa-3-azabicyclo[3.2.1]octan-3-yl]ethyl}-1H-indazol-7-yl)-5-methyl-4-oxo-7-(1,4,4-trifluorocyclohexyl)-3H, 4H-pyrido[2,3-d]pyrimidin-2-yl]-2-(3,5-difluorophenyl)ethyl]-2-[(2S,4R)-9-(difluoromethyl)-5,5-difluoro-7,8-diazatricyclo[4.3.0.0^2,^4]nona-1(6),8-dien-7-yl]acetamide], the CC50 – broadly, the concentration giving 50% cytotoxicity – at 4 days in series [1] (setting [3]) is > 20 nM. The EC50 (commonly the midpoint of the concentration-response curve) in series [2] worked out at 0.005 nM.
With `Cc1cc(C2(F)CCC(F)(F)CC2)nc2nc([C@H](Cc3cc(F)cc(F)c3)NC(=O)Cn3nc(C(F)F)c4c3C(F)(F)[C@@H]3C[C@H]43)n(-c3ccc(Cl)c4c(NS(C)(=O)=O)nn(CCN5[C@@H]6CC[C@H]5COC6)c34)c(=O)c12` (atropisomer, axis not shown; (P)) [Example 590, N-[(1S)-1-[(3P)-3-(4-chloro-3-methanesulfonamido-1-{2-[(1R,5S)-3-oxa-8-azabicyclo[3.2.1]octan-8-yl]ethyl}-1H-indazol-7-yl)-5-methyl-4-oxo-7-(1,4,4-trifluorocyclohexyl)-3H,4H-pyrido[2,3-d]pyrimidin-2-yl]-2-(3,5-difluorophenyl)ethyl]-2-[(2S,4R)-9-(difluoromethyl)-5,5-difluoro-7,8-diazatricyclo[4.3.0.0^2,^4]nona-1(6),8-dien-7-yl]acetamide], in series [1], the CC50 at 4 days is > 20 nM. For the same molecule, the EC50 in series [2] turned out to be 0.013 nM.
As to `Cc1cc(C2(F)CCC(F)(F)CC2)nc2nc([C@H](Cc3cc(F)cc(F)c3)NC(=O)Cn3nc(C4CC4)c4c3C[C@@H]3C[C@H]43)n(-c3ccc(Cl)c4c(NS(C)(=O)=O)nn(CCN5C[C@H]6CC[C@@H](C5)O6)c34)c(=O)c12` (atropisomer, axis not shown; (P)) [Example 592, N-[(1S)-1-[(3P)-3-(4-chloro-3-methanesulfonamido-1-{2-[(1R,5S)-8-oxa-3-azabicyclo[3.2.1]octan-3-yl]ethyl}-1H-indazol-7-yl)-5-methyl-4-oxo-7-(1,4,4-trifluorocyclohexyl)-3H,4H-pyrido[2,3-d]pyrimidin-2-yl]-2-(3,5-difluorophenyl)ethyl]-2-[(2S,4S)-9-cyclopropyl-7,8-diazatricyclo[4.3.0.0^2,^4]nona-1(6),8-dien-7-yl]acetamide], in series [1] (setting [3]), the CC50 at 4 days was > 20 nM. Further, the EC50 in series [2] worked out at 0.006 nM.
For `Cc1cc(C2(F)CCC(F)(F)CC2)nc2nc([C@H](Cc3cc(F)cc(F)c3)NC(=O)Cn3nc(C4CC4)c4c3C[C@@H]3C[C@H]43)n(-c3ccc(Cl)c4c(NS(C)(=O)=O)nn(CCN5[C@@H]6CC[C@H]5COC6)c34)c(=O)c12` (atropisomer, axis not shown; (P)) [Example 593, N-[(1S)-1-[(3P)-3-(4-chloro-3-methanesulfonamido-1-{2-[(1R,5S)-3-oxa-8-azabicyclo[3.2.1]octan-8-yl]ethyl}-1H-indazol-7-yl)-5-methyl-4-oxo-7-(1,4,4-trifluorocyclohexyl)-3H,4H-pyrido[2,3-d]pyrimidin-2-yl]-2-(3,5-difluorophenyl)ethyl]-2-[(2S,4S)-9-cyclopropyl-7,8-diazatricyclo[4.3.0.0^2,^4]nona-1(6),8-dien-7-yl]acetamide], in series [1], the CC50 at 4 days is > 20 nM. Moreover, in series [2], the EC50 was 0.017 nM.
Regarding `Cc1cc(C2(F)CCC(F)(F)CC2)nc2nc([C@H](Cc3cc(F)cc(F)c3)NC(=O)Cn3nc(C(F)(F)F)c4c3C(F)(F)[C@@H]3C[C@H]43)n(-c3ccc(Cl)c4c(NS(C)(=O)=O)nn(CCN5C[C@@H](C)O[C@@H](C)C5)c34)c(=O)c12` (atropisomer, axis not shown; (P)) [Example 594, N-[(1S)-1-[(3P)-3-(4-chloro-1-{2-[(2R,6S)-2,6-dimethylmorpholin-4-yl]ethyl}-3-methanesulfonamido-1H-indazol-7-yl)-5-methyl-4-oxo-7-(1,4,4-trifluorocyclohexyl)-3H,4H-pyrido[2,3-d]pyrimidin-2-yl]-2-(3,5-difluorophenyl)ethyl]-2-[(2S,4R)-5,5-difluoro-9-(trifluoromethyl)-7,8-diazatricyclo[4.3.0.0^2,^4]nona-1(6),8-dien-7-yl]acetamide], in series [1] (setting [3]), the CC50 at 4 days was > 20 nM. The EC50 in series [2] was determined as 0.011 nM.
Consider `Cc1cc(C2(F)CCC(F)(F)CC2)nc2nc([C@H](Cc3cc(F)cc(F)c3)NC(=O)Cn3nc(C4CC4)c4c3C(F)(F)[C@@H]3C[C@H]43)n(-c3ccc(Cl)c4c(NS(C)(=O)=O)nn(CCN5C[C@@H](C)O[C@@H](C)C5)c34)c(=O)c12` (atropisomer, axis not shown; (P)) [Example 595, N-[(1S)-1-[(3P)-3-(4-chloro-1-{2-[(2R,6S)-2,6-dimethylmorpholin-4-yl]ethyl}-3-methanesulfonamido-1H-indazol-7-yl)-5-methyl-4-oxo-7-(1,4,4-trifluorocyclohexyl)-3H,4H-pyrido[2,3-d]pyrimidin-2-yl]-2-(3,5-difluorophenyl)ethyl]-2-[(2S,4R)-9-cyclopropyl-5,5-difluoro-7,8-diazatricyclo[4.3.0.0^2,^4]nona-1(6),8-dien-7-yl]acetamide], for which, in series [1] (setting [3]), the CC50 at 4 days was > 20 nM. For the same molecule, in series [2], the EC50 was 0.014 nM.
The like results for `Cc1cc(C2(F)CCC(F)(F)CC2)nc2nc([C@H](Cc3cc(F)cc(F)c3)NC(=O)Cn3nc(C(F)F)c4c3C[C@@H]3C[C@H]43)n(-c3ccc(Cl)c4c(NS(C)(=O)=O)nn(CCN5C[C@@H](C)O[C@@H](C)C5)c34)c(=O)c12` (atropisomer, axis not shown; (P)) [Example 596, N-[(1S)-1-[(3P)-3-(4-chloro-1-{2-[(2R,6S)-2,6-dimethylmorpholin-4-yl]ethyl}-3-methanesulfonamido-1H-indazol-7-yl)-5-methyl-4-oxo-7-(1,4,4-trifluorocyclohexyl)-3H,4H-pyrido[2,3-d]pyrimidin-2-yl]-2-(3,5-difluorophenyl)ethyl]-2-[(2S,4S)-9-(difluoromethyl)-7,8-diazatricyclo[4.3.0.0^2,^4]nona-1(6),8-dien-7-yl]acetamide] were, in that order, > 20 nM and 0.029 nM.
For the molecule `Cc1cc(C2(F)CCC(F)(F)CC2)nc2nc([C@H](Cc3cc(F)cc(F)c3)NC(=O)Cn3nc(C(F)(F)F)c4c3C[C@@H]3C[C@H]43)n(-c3ccc(Cl)c4c(NS(C)(=O)=O)nn(CCN5C[C@@H](C)O[C@@H](C)C5)c34)c(=O)c12` (atropisomer, axis not shown; (P)) [Example 597, N-[(1S)-1-[(3P)-3-(4-chloro-1-{2-[(2R,6S)-2,6-dimethylmorpholin-4-yl]ethyl}-3-methanesulfonamido-1H-indazol-7-yl)-5-methyl-4-oxo-7-(1,4,4-trifluorocyclohexyl)-3H,4H-pyrido[2,3-d]pyrimidin-2-yl]-2-(3,5-difluorophenyl)ethyl]-2-[(2S,4S)-9-(trifluoromethyl)-7,8-diazatricyclo[4.3.0.0^2,^4]nona-1(6),8-dien-7-yl]acetamide], in series [1] (setting [3]), the CC50 at 4 days was > 20 nM. In addition, in series [2], the EC50 was 0.021 nM.
Taken in the same sequence, the figures for `Cc1cc(C2(F)CCC(F)(F)CC2)nc2nc([C@H](Cc3cc(F)cc(F)c3)NC(=O)Cn3nc([C@H]4CC4(F)F)c4c3C[C@H]3C[C@@H]43)n(-c3ccc(Cl)c4c(NS(C)(=O)=O)nn(CCN5C[C@@H](C)O[C@@H](C)C5)c34)c(=O)c12` (atropisomer, axis not shown; (P)) [Example 598, N-[(1S)-1-[(3P)-3-(4-chloro-1-{2-[(2R,6S)-2,6-dimethylmorpholin-4-yl]ethyl}-3-methanesulfonamido-1H-indazol-7-yl)-5-methyl-4-oxo-7-(1,4,4-trifluorocyclohexyl)-3H,4H-pyrido[2,3-d]pyrimidin-2-yl]-2-(3,5-difluorophenyl)ethyl]-2-[(2R,4R)-9-[(1R)-2,2-difluorocyclopropyl]-7,8-diazatricyclo[4.3.0.0^2,^4]nona-1(6),8-dien-7-yl]acetamide] were > 20 nM and 0.009 nM.
Taken in the same sequence, the figures for `COCCCn1nc(NS(C)(=O)=O)c2c(Cl)ccc(-n3c([C@H](Cc4cc(F)cc(F)c4)NC(=O)Cn4nc(C5CC5)c5c4C[C@@H]4C[C@H]54)nc4nc(C5CCC(F)(F)CC5)cc(CN5C[C@@H](C)O[C@@H](C)C5)c4c3=O)c21` (atropisomer, axis not shown; (P)) [Example 599, N-[(1S)-1-[(3P)-3-[4-chloro-3-methanesulfonamido-1-(3-methoxypropyl)-1H-indazol-7-yl]-7-(4,4-difluorocyclohexyl)-5-{[(2R,6S)-2,6-dimethylmorpholin-4-yl]methyl}-4-oxo-3H,4H-pyrido[2,3-d]pyrimidin-2-yl]-2-(3,5-difluorophenyl)ethyl]-2-[(2S,4S)-9-cyclopropyl-7,8-diazatricyclo[4.3.0.0^2,^4]nona-1(6),8-dien-7-yl]acetamide] were > 20 nM and 0.007 nM.
